Reference: patent US11447486B2, “2-amino-benzimidazole derivatives and their use as 5-lipoxygenase and/or prostaglandin E synthase inhibitors” (INSTITUT PASTEUR KOREA, priority 2014, dated 2022)
Where two headings read alike, the source gives them in different places.

What was measured:
human 5-LOX = target: T1, human 5-LOX (Homo sapiens, UniProt P09917); assay: 5-LOX enzyme activity, fluorescence method (5-HPETE, H2DCFDA); format: biochemical; conditions: read-out: 5-LO (IC50)
T1 construct: purchased Cayman 60402; host or cells: insect cells (lysate)
T1 sequence (P09917 1-674): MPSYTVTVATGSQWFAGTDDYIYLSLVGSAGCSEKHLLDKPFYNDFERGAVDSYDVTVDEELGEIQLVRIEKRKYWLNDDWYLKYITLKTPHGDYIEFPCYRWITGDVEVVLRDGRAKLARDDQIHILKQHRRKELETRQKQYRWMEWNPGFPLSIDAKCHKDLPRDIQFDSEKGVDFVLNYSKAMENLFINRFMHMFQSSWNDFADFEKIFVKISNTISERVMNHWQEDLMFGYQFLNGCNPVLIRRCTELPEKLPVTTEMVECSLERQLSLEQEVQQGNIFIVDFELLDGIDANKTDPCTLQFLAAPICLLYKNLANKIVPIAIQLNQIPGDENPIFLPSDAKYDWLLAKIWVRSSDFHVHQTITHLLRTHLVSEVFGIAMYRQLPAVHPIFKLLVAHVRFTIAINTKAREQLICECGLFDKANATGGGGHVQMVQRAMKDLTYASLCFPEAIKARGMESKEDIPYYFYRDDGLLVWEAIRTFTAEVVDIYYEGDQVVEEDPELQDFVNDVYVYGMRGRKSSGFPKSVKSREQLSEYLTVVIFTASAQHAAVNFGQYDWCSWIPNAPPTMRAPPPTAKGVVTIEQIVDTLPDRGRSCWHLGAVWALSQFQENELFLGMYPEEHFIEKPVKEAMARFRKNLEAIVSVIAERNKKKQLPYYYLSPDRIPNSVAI
Protocol: The activity of compounds against 5-LOX were determined by measuring LTB4 (leukotriene B4) levels and/or by a fluorescence method. Both approaches are outlined in more detail below;
The compound, in a dose response manner(0.5 nM to 10 uM), and enzyme mixture was pre-incubated for 5 minutes, and the enzymatic reaction was initiated by addition of ATP and arachidonic acid to a final concentration of 100 uM and 3 uM, respectively. […] All steps were carried out at room temperature.

[1] = tested on: Rat basophilic leukemia (RBL) cells; assay: LTB4 secretion assay in RBL (rat basophilic leukemia cells); format: cell-based
Protocol: Rat basophilic leukemia (RBL) cells (ATCC, Cat #CRL-2256) were maintained in EMEM (ATCC, Cat #30-2003) supplemented with 15% FBS. The day before RBL assay, cells were seeded at a concentration of 2×10^4 cells per well in 96-well plates. The media was replaced with 100 ul of EMEM supplemented with 0.5% FBS and compounds in dose response(5 nM to 100 uM) were added. After 15 min of pre-incubation at 37° C., arachidonic acid and calcium ionophore (A23187) were added to give a final concentration of 2.5 uM and 5 uM, respectively. After a further 10 min incubation at 37° C., culture supernatant was transferred and quantification of LTB4 was done with a Leukotriene B4 EIA kit (Cayman, Cat #520111) as instructed.

IC50 (human 5-LOX) [µM]	EC50 ([1]; Rattus norvegicus, RBL) [µM]	EC50 [1] [µM]	SMILES
1 to 10	> 20		Cn1c(NCN2CC(Cc3ccccc3)OC2=O)nc2ccc(N)cc21 (stereo not shown) [Compound 174]
< 1	< 10		CN(C)CCn1c(NCc2ccc(Oc3ccc(Cl)cn3)cc2)nc2ccc(NC3COC3)cc21 [Compound 332]
< 1	> 20		Cn1c(N2CCC(c3ccc(OC(F)(F)F)cc3)CC2)nc2ccc(N)cc21 [Compound 157]
< 1	< 10		Cn1c(NCc2ccc(OCc3ncco3)cc2)nc2ccc(N)cc21 [Compound 342]
< 1	> 20		COC(c1ccc(CNc2nc3ccc(NC4COC4)cc3[nH]2)cc1)c1ccccn1 (stereo not shown) [Compound 189]
< 1	< 10		Cn1c(NCc2ccc(Oc3ncc(Cl)cn3)c(Cl)c2)nc2ccc(N)cc21 [Compound 391]
< 1	< 10		Cn1c(NCc2ccc(Oc3ccc(OC(F)(F)F)cc3)cc2)nc2ccc(N)cc21 [Compound 292]
< 1	< 10		CCOC(=O)c1coc(-c2ccc(CNc3ccc4[nH]c(N(C)C)nc4c3)cc2)n1 [Compound 218]
< 1	< 10		Nc1ccc2nc(NCc3ccc(Oc4ccc(Cl)cn4)cc3)n(C3COC3)c2c1 [Compound 261]
< 1	10 to 20		Fc1ccc(OC2CCN(c3nc4cc(NC5COC5)ccc4[nH]3)CC2)cc1 [Compound 36]
< 1	< 10		CCN(c1ccc2nc(NCc3ccc(Oc4ccc(Cl)cn4)cc3)n(C)c2c1)C1COC1 [Compound 278]
< 1	> 20		Cc1cnc(Oc2ccc(CNc3nc4ccc(N)cc4n3C)cc2)nc1 [Compound 348]
1 to 10	> 20		Cn1c(N2CCC(Oc3ccc(F)cc3)CC2)nc2cc(N)ccc21 [Compound 35]
< 1	< 10		COCCNc1ccc2nc(NCc3ccc(Oc4ccc(Cl)cn4)cc3)n(C)c2c1 [Compound 316]
< 1	< 10		Cn1c(NCc2ccc(Oc3ncc(Cl)c(C4CC4)n3)cc2)nc2ccc(NC3COC3)cc21 [Compound 398]
< 1	< 10		Nc1ccc2nc(NCCO)n(Cc3ccc(Oc4ccc(Cl)cn4)cc3)c2c1 [Compound 250]
< 1	< 10		Cn1c(NCc2ccc(Oc3ncc(Cl)cc3F)cc2)nc2ccc(N)cc21 [Compound 323]
< 1	10 to 20		Clc1ccc(Oc2ccc(CNc3nc4ccc(NC5COC5)cc4n3C3COC3)cc2)nc1 [Compound 266]
< 1	< 10		Cn1c(NCc2ccc(Oc3cnc(Cl)cn3)cc2)nc2ccc(N)cc21 [Compound 295]

IC50 (human 5-LOX) [µM]	EC50 ([1]; Rattus norvegicus, RBL) [µM]	EC50 [1] [µM]	SMILES
< 1	< 10		Cc1cc(Nc2cc(Cl)c3nc(NCc4ccc(Oc5ncc(Cl)cn5)cc4)n(C)c3c2)n[nH]1 [Compound 556]
1 to 10	> 20		Cn1c(NCc2ccc(Oc3ncc(Cl)cn3)cn2)nc2ccc(NC3COC3)cc21 [Compound 355]
< 1	> 20		Cn1c(NCc2ccc(Oc3ncc(Cl)cn3)cc2)nc2ccc(Nc3n[nH]cc3C(=O)NC3CC3)cc21 [Compound 483]
< 1	< 10		CC(C)c1cc(CNc2nc3ccc(NC4COC4)cc3n2C)ccc1Oc1ncc(Cl)cn1 [Compound 396]
< 1	< 10		Cn1c(NCc2ccc(Oc3ccc(C(F)(F)F)cn3)cc2)nc2ccc(N)cc21 [Compound 276]
< 1	< 10		Cn1c(NCc2ccc(Oc3ccccn3)cc2)nc2ccc(NC3COC3)cc21 [Compound 347]
< 1	> 20		Cn1c(NCc2ccc(Oc3ccc(Cl)cc3)cc2)nc2ccc(NCC#N)cc21 [Compound 171]
< 1	> 20		Nc1ccc2nc(NCc3ccc(C(O)c4ccccn4)cc3)[nH]c2c1 (stereo not shown) [Compound 139]
< 1	< 10		Cc1ccc(Oc2ccc(CNc3nc4ccc(N)cc4n3C)cc2)nc1 [Compound 352]
< 1	< 10		Cn1c(NCc2ccc(Oc3cn4ccc(Cl)cc4n3)cc2)nc2ccc(NC3COC3)cc21 [Compound 455]
< 1	< 10		Cn1c(NCCOc2ccc(Cl)c(Cl)c2)nc2ccc(N)cc21 [Compound 60]
1 to 10	10 to 20		CN(C)c1nc2cc(NC3COC3)ccc2n1CCOc1ccc(Cl)cc1 [Compound 41]
< 1	< 10		Cn1c(NCc2ccc(Oc3ncc4cccc(Cl)c4n3)cc2)nc2ccc(NC3COC3)cc21 [Compound 437]
< 1	< 10		CCC(Nc1nc2ccc(NC3COC3)cc2n1C)c1ccc(Oc2ncc(Cl)cn2)cc1 (stereo not shown) [Compound 453]
< 1	< 10		Cn1c(NCc2ccc(Oc3ccnc4c(Cl)cccc34)cc2)nc2ccc(N)cc21 [Compound 387]
< 1	10 to 20		Cn1c(NCCOc2ccc(Cl)c(Cl)c2)nc2cc(N)ccc21 [Compound 61]
< 1	< 10		Cn1c(NCc2ccc(Oc3ncc(Cl)cn3)cc2)nc2ccc(NC3CNC3)cc21 [Compound 407]
< 1	< 10		Cn1c(NCc2ccc(Oc3ncc4c(Cl)cccc4n3)cc2)nc2ccc(N)cc21 [Compound 434]
< 1	> 20		Cn1c(N2CCC(COc3ccc(Cl)cc3)CC2)nc2ccc(N)cc21 [Compound 163]

IC50 (human 5-LOX) [µM]	EC50 ([1]; Rattus norvegicus, RBL) [µM]	EC50 [1] [µM]	SMILES
< 1	< 10		CCn1c(NCc2ccc(Oc3ccc(Cl)cn3)cc2)nc2ccc(N)cc21 [Compound 265]
< 1	< 10		OCCn1c(NCc2ccc(Oc3ccc(Cl)cn3)cc2)nc2ccc(NC3COC3)cc21 [Compound 257]
> 10	< 10		CN(C)c1nc2ccc(Nc3ccn(C)n3)cc2n1CCOc1ccc(OC(F)(F)F)cc1 [Compound 45]
< 1	< 10		Cn1c(NCc2ccc(Oc3ccc(Cl)cn3)c(F)c2)nc2ccc(N)cc21 [Compound 267]
< 1	10 to 20		Cn1c(NCc2ccc(Oc3ncc4ccc(Cl)cc4n3)cc2)nc2ccc(NC3COC3)cc21 [Compound 444]
< 1	10 to 20		Cc1cc(Oc2ncc(Cl)cn2)cc(C)c1CNc1nc2ccc(N)cc2n1C [Compound 385]
< 1	< 10		Cn1c(NCc2ccc(Oc3ncc4ccc(Cl)cc4n3)cc2)nc2ccc(N)cc21 [Compound 440]
< 1	< 10		COC(=O)c1ccc(OC2CCN(c3ccc4[nH]c(N(C)C)nc4c3)C2)cc1 (stereo not shown) [Compound 194]
< 1	< 10		Cn1c(NCc2ccc(Oc3ccc4cccc(Cl)c4n3)cc2)nc2ccc(N)cc21 [Compound 421]
< 1	> 20		CN(C(=O)c1ccc(CNc2nc3ccc(N)cc3n2C)cc1)c1ccc(Cl)cn1 [Compound 319]
< 1	< 10		Cn1c(NCc2ccc(Oc3ccc(Cl)cc3)cc2)nc2ccc(N3CC(O)C3)cc21 [Compound 192]
< 1		> 20	Cc1cc(Nc2ccc3nc(NCc4ccc(Oc5ncc(Cl)cn5)cc4)[nH]c3c2)n[nH]1 [Compound 484]
< 1	< 10		Cc1cc(Nc2ccc3nc(NCc4ccc(Oc5ncc(-c6ccc(Cl)cc6)cn5)cc4)n(C)c3c2)n[nH]1 [Compound 467]
< 1	< 10		N#CCCNc1nc2ccc(N)cc2n1Cc1ccc(Oc2ccc(Cl)cc2)cc1 [Compound 252]
< 1	< 10		Cn1c(NCc2ccc(Oc3ccc(OC(F)(F)F)cn3)cc2)nc2ccc(N)cc21 [Compound 377]
< 1			O=C(NC1CCCC1)c1c[nH]nc1Nc1ccc2[nH]c(NCc3ccc(Oc4ccc(Cl)cc4)cc3)nc2c1 [Compound 19]
< 1			Nc1ccc2[nH]c(NCc3ccc(N4CCC(Oc5ccc(Cl)cc5)CC4)cc3)nc2c1 [Compound 2]
1 to 10			Nc1nc2ccc(Nc3n[nH]cc3C(=O)NC3CCCC3)cc2n1CCOc1ccc(OC(F)(F)F)cc1 [Compound 18]
